# According to the supplement of paper PMC10307832:
# What was measured:
# Test in all cases: relative viability (nuclei count vs DMSO), 5 days (fraction); higher = more cells survive
# [1] = tested on: NCI-H23
# Outline: (§1)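 Cells from lung cancer lines were seeded into 1536-well plates and, one day later, dosed by pin tool. Treatments were either a single drug or a fixed dose of an anchor drug with five library-drug doses (not always all listed) in √10 steps. After 5 days, nuclei were stained in a one-step fixation (final 0.05% Triton X-100, 1% formaldehyde, 1 ug/ml Hoechst) and counted on 4× images, and relative viability is the treated-to-vehicle nuclei ratio, as the median of duplicate plates.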
# [2] = tested on: NCI-H1792
# Outline: as §1
# [3] = tested on: NCI-H1666
# Outline: as §1
# [4] = tested on: A-427
# Outline: as §1
# [5] = tested on: NCI-H596
# Outline: as §1
# [6] = tested on: HARA
# Outline: as §1
# [7] = tested on: SW 900
# Outline: as §1
# [8] = tested on: HCC-44
# Outline: as §1
# [9] = tested on: NCI-H2342
# Outline: as §1
# [10] = tested on: HCC-15
# Outline: as §1
# [11] = tested on: COR-L23
# Outline: as §1
# [12] = tested on: NCI-H838
# Outline: as §1
# [13] = tested on: NCI-H1650
# Outline: as §1
# [14] = tested on: NCI-H441
# Outline: as §1
# [15] = tested on: HCC-827
# Outline: as §1
# [16] = tested on: EKVX
# Outline: as §1
# [17] = tested on: NCI-H1437
# Outline: as §1
# [18] = tested on: SK-MES-1
# Outline: as §1
# [19] = tested on: BEN
# Outline: as §1
# [20] = tested on: NCI-H650
# Outline: as §1
# [21] = tested on: NCI-H1975
# Outline: as §1
# [22] = tested on: NCI-H358
# Outline: as §1
# [23] = tested on: 201T
# Outline: as §1
smiles,measurement,setting,value
CCN(CC)CCCCNc1ncc2cc(-c3cc(OC)cc(OC)c3)c(NC(=O)NC(C)(C)C)nc2n1 + COc1cccc2cc(-c3nc([C@H]4CC[C@H](C(=O)O)CC4)n4ncnc(N)c34)[nH]c12 [OSI-027] (partner 0.5 µM),relative viability,[1]; first compound 0.01 µM,0.566
same,relative viability,[1]; first compound 0.03162 µM,0.679
same,relative viability,[1]; first compound 0.1 µM,0.738
same,relative viability,[1]; first compound 0.3162 µM,0.731
same,relative viability,[1]; first compound 1 µM,0.623
same,relative viability,[2]; first compound 0.01 µM,0.602
same,relative viability,[2]; first compound 0.03162 µM,0.783
same,relative viability,[2]; first compound 0.1 µM,0.706
same,relative viability,[2]; first compound 0.3162 µM,0.723
same,relative viability,[2]; first compound 1 µM,0.523
same,relative viability,[3]; first compound 0.01 µM,0.896
same,relative viability,[3]; first compound 0.03162 µM,0.877
same,relative viability,[3]; first compound 0.1 µM,0.817
same,relative viability,[3]; first compound 0.3162 µM,1.08
same,relative viability,[3]; first compound 1 µM,0.851
same,relative viability,[4]; first compound 0.01 µM,0.457
same,relative viability,[4]; first compound 0.03162 µM,0.435
same,relative viability,[4]; first compound 0.1 µM,0.427
same,relative viability,[4]; first compound 0.3162 µM,0.364
same,relative viability,[4]; first compound 1 µM,0.298
same,relative viability,[5]; first compound 0.01 µM,0.63
same,relative viability,[5]; first compound 0.03162 µM,0.74
same,relative viability,[5]; first compound 0.1 µM,0.758
same,relative viability,[5]; first compound 0.3162 µM,0.709
same,relative viability,[5]; first compound 1 µM,0.528
same,relative viability,[6]; first compound 0.01 µM,0.522
same,relative viability,[6]; first compound 0.03162 µM,0.647
same,relative viability,[6]; first compound 0.1 µM,0.429
same,relative viability,[6]; first compound 0.3162 µM,0.697
same,relative viability,[6]; first compound 1 µM,0.446
same,relative viability,[7]; first compound 0.01 µM,0.657
same,relative viability,[7]; first compound 0.03162 µM,0.592
same,relative viability,[7]; first compound 0.3162 µM,0.634
same,relative viability,[7]; first compound 1 µM,0.402
same,relative viability,[8]; first compound 0.01 µM,0.436
same,relative viability,[8]; first compound 0.03162 µM,0.587
same,relative viability,[8]; first compound 0.1 µM,0.573
same,relative viability,[8]; first compound 0.3162 µM,0.519
same,relative viability,[8]; first compound 1 µM,0.479
same,relative viability,[9]; first compound 0.01 µM,0.676
same,relative viability,[9]; first compound 0.03162 µM,0.615
same,relative viability,[9]; first compound 0.1 µM,0.622
same,relative viability,[9]; first compound 0.3162 µM,0.701
same,relative viability,[9]; first compound 1 µM,0.568
same,relative viability,[10]; first compound 0.01 µM,0.662
same,relative viability,[10]; first compound 0.03162 µM,0.673
same,relative viability,[10]; first compound 0.1 µM,0.717
same,relative viability,[10]; first compound 0.3162 µM,0.936
same,relative viability,[10]; first compound 1 µM,0.577
same,relative viability,[11]; first compound 0.01 µM,1.19
same,relative viability,[11]; first compound 0.03162 µM,0.873
same,relative viability,[11]; first compound 0.1 µM,1.06
same,relative viability,[11]; first compound 0.3162 µM,1.07
same,relative viability,[11]; first compound 1 µM,0.503
same,relative viability,[12]; first compound 0.01 µM,0.373
same,relative viability,[12]; first compound 0.03162 µM,0.39
same,relative viability,[12]; first compound 0.1 µM,0.449
same,relative viability,[12]; first compound 0.3162 µM,0.377
same,relative viability,[12]; first compound 1 µM,0.273
same,relative viability,[13]; first compound 0.01 µM,0.7
same,relative viability,[13]; first compound 0.03162 µM,0.702
same,relative viability,[13]; first compound 0.1 µM,0.649
same,relative viability,[13]; first compound 0.3162 µM,0.624
same,relative viability,[13]; first compound 1 µM,0.4
same,relative viability,[14]; first compound 0.01 µM,0.56
same,relative viability,[14]; first compound 0.03162 µM,0.669
same,relative viability,[14]; first compound 0.1 µM,0.638
same,relative viability,[14]; first compound 0.3162 µM,0.689
same,relative viability,[14]; first compound 1 µM,0.623
same,relative viability,[15]; first compound 0.01 µM,0.809
same,relative viability,[15]; first compound 0.03162 µM,0.761
same,relative viability,[15]; first compound 0.1 µM,0.836
same,relative viability,[15]; first compound 0.3162 µM,0.95
same,relative viability,[15]; first compound 1 µM,0.655
same,relative viability,[16]; first compound 0.01 µM,0.734
same,relative viability,[16]; first compound 0.03162 µM,0.721
same,relative viability,[16]; first compound 0.1 µM,0.711
same,relative viability,[16]; first compound 0.3162 µM,0.765
same,relative viability,[16]; first compound 1 µM,0.671
same,relative viability,[17]; first compound 0.01 µM,0.978
same,relative viability,[17]; first compound 0.03162 µM,0.876
same,relative viability,[17]; first compound 0.1 µM,0.925
same,relative viability,[17]; first compound 0.3162 µM,0.874
same,relative viability,[17]; first compound 1 µM,0.857
same,relative viability,[18]; first compound 0.01 µM,0.627
same,relative viability,[18]; first compound 0.03162 µM,0.654
same,relative viability,[18]; first compound 0.1 µM,0.58
same,relative viability,[18]; first compound 0.3162 µM,0.81
same,relative viability,[18]; first compound 1 µM,0.521
same,relative viability,[19]; first compound 0.01 µM,0.242
same,relative viability,[19]; first compound 0.03162 µM,0.285
same,relative viability,[19]; first compound 0.1 µM,0.347
same,relative viability,[19]; first compound 0.3162 µM,0.311
same,relative viability,[19]; first compound 1 µM,0.282
same,relative viability,[20]; first compound 0.01 µM,0.46
same,relative viability,[20]; first compound 0.03162 µM,0.551
same,relative viability,[20]; first compound 0.1 µM,0.589
same,relative viability,[20]; first compound 0.3162 µM,0.605
same,relative viability,[20]; first compound 1 µM,0.507
same,relative viability,[21]; first compound 0.01 µM,0.86
same,relative viability,[21]; first compound 0.03162 µM,0.822
same,relative viability,[21]; first compound 0.1 µM,0.802
same,relative viability,[21]; first compound 0.3162 µM,0.949
same,relative viability,[21]; first compound 1 µM,0.559
same,relative viability,[22]; first compound 0.01 µM,0.791
same,relative viability,[22]; first compound 0.03162 µM,0.803
same,relative viability,[22]; first compound 0.1 µM,1.12
same,relative viability,[22]; first compound 0.3162 µM,0.996
same,relative viability,[22]; first compound 1 µM,0.694
same,relative viability,[23]; first compound 0.01 µM,0.615
same,relative viability,[23]; first compound 0.03162 µM,0.658
same,relative viability,[23]; first compound 0.1 µM,0.927
same,relative viability,[23]; first compound 0.3162 µM,0.798
same,relative viability,[23]; first compound 1 µM,0.607
